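Method: 48-hour compound exposure of cells in 96-well plates, five concentrations, linear interpolation of endpoints. At the TGI there is no net growth.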
What was measured:
Experiment in all cases: NCI anticancer screen, dose series, 48 h
[1] = system: HCT-116 colon
[2] = system: 786-0 renal
[3] = system: IGROV1 ovarian
[4] = system: OVCAR-4 ovarian
[5] = system: UACC-62 melanoma
[6] = system: NCI/ADR-RES ovarian
[7] = system: M14 melanoma
[8] = system: TK-10 renal
[9] = system: UACC-257 melanoma
[10] = system: SNB-75 CNS
[11] = system: HL-60(TB) leukemia
[12] = system: HCT-15 colon
[13] = system: OVCAR-8 ovarian
[14] = system: T-47D breast
[15] = system: PC-3 prostate
[16] = system: DU-145 prostate
[17] = system: BT-549 breast
[18] = system: U251 CNS
[19] = system: MALME-3M melanoma
[20] = system: RPMI-8226 leukemia

Compound	TGI [1] [µM]	TGI [2] [µM]	TGI [3] [µM]	TGI [4] [µM]	TGI [5] [µM]	TGI [6] [µM]	TGI [7] [µM]	TGI [8] [µM]	TGI [9] [µM]	TGI [10] [µM]	TGI [11] [µM]	TGI [12] [µM]	TGI [13] [µM]	TGI [14] [µM]	TGI [15] [µM]	TGI [16] [µM]	TGI [17] [µM]	TGI [18] [µM]	TGI [19] [nM]	TGI [20] [µM]
CC(C)(C)OC(=O)N1CC(COS(C)(=O)=O)c2ccc(O)cc21 (stereo not given)	10.3	11	12.1	3.13	3.2	4.07	3.14	8.76	5.54	3.05	3.98	5.68	4.51	11.1	3.83	3.53	3.58	9.69	2860	3.96
CCC1(CC)C(=O)N(C(=O)c2ccc(Cl)cc2)N(C(=O)c2ccccc2Cl)C1=O	> 100	> 100	16.3	> 100	> 100	> 100	> 100	> 100	> 100	> 100	> 100	> 100	> 100	> 100	> 100	> 100	> 100	> 100	> 100000	78.9
